According to paper PMC8776228 (International Journal of Molecular Sciences, 2022):
Converted amounts (≈) assume the structure as drawn. “And” between values parts separate entries of the source, which are not always exact repeats. Equal entries are not always repeated. Where two headings read alike, the source gives them in different places.

Legend:
M. smegmatis DprE1 [1] = molecular target: T1, M. smegmatis DprE1 (Mycolicibacterium smegmatis, UniProt A0R607); details: cited from earlier work
M. tuberculosis H37Rv [2] = experiment: microbe, parasite or virus in culture; assay type: cell-based; details: Mycobacterium tuberculosis
M. smegmatis mc^2155 [3] = experiment: microbe, parasite or virus in culture; assay type: cell-based, Mycobacterium smegmatis; details: Mycolicibacterium smegmatis
M. smegmatis DprE1 [4] = molecular target: T1, M. smegmatis DprE1; experiment: biochemical; parameters: species or system Mycobacterium smegmatis
M. bovis = details: cited from earlier work
M. smegmatis = details: cited from earlier work
[5] = tested on: M. smegmatis mc^2155-pJV53H DprE1 L282V
M. tuberculosis = details: cited from earlier work
M. smegmatis DprE1 C394A [6] = molecular target: T2, M. smegmatis DprE1 C394A (Mycolicibacterium smegmatis, UniProt A0R607, C386A)
M. smegmatis DprE1 C394S [7] = molecular target: T3, M. smegmatis DprE1 C394S (Mycolicibacterium smegmatis, UniProt A0R607, C386S)
M. avium = details: cited from earlier work
M. abscessus = details: cited from earlier work
M. tuberculosis H37Rv [8] = tested on: M. tuberculosis H37Rv
M. smegmatis mc^2155 [9] = tested on: M. smegmatis mc^2155
M. smegmatis DprE1 C394A [10] = molecular target: T2, M. smegmatis DprE1 C394A; experiment: biochemical
M. tuberculosis H37Rv [11] = tested on: M. tuberculosis H37Rv; remark: listed apart in the source
M. smegmatis DprE1 L282V = M. smegmatis DprE1 L282V (Mycolicibacterium smegmatis, UniProt A0R607, L274V/L282V); experiment: biochemical
[12] = tested on: M. smegmatis mc^2155-pJV53H DprE1 L282F
M. smegmatis DprE1 L282F = M. smegmatis DprE1 L282F (Mycolicibacterium smegmatis, UniProt A0R607, L274F/L282F); experiment: biochemical
M. smegmatis DprE1 C394S [13] = molecular target: T3, M. smegmatis DprE1 C394S; experiment: biochemical
M. kansasii = details: cited from earlier work

Question: What does the source list for `C[C@H]1COC2(CCN(c3nc(=O)c4cc(C(F)(F)F)cc([N+](=O)[O-])c4s3)CC2)O1` [BTZ043]?
Answer: IC50 (M. smegmatis DprE1 [1]): 4 nM; MIC (M. tuberculosis H37Rv [2]; read-out: MIC BTZ043): 0.001 µg/mL (≈ 0.00232 µM); MIC (M. smegmatis mc^2155 [3]; MC^2155, read-out: MIC BTZ-043): 0.008 µg/mL (≈ 0.0185 µM)

Question: For `NNC(=O)c1ccncc1` [INH, isoniazid], which MIC (M. tuberculosis H37Rv [2]; read-out: MIC INH) is on record?
Answer: 0.025 µg/mL (≈ 0.182 µM)

Question: For `CO/N=C1\C[C@]2(C[C@@H]3C[C@@H](C/C=C(\C)C[C@@H](C)/C=C/C=C4\CO[C@@H]5[C@H](O)C(C)=C[C@@H](C(=O)O3)[C@]45O)O2)O[C@H](/C(C)=C/C(C)C)[C@H]1C` [Moxidectin], which IC50 (M. smegmatis DprE1 [4]) is on record?
Answer: 6.1 ± 0.9 µM

Question: With `CO[C@H]1C[C@H](O[C@@H]2/C(C)=C/C[C@@H]3C[C@@H](C[C@]4(CC[C@H](C)[C@@H](C5CCCCC5)O4)O3)OC(=O)[C@@H]3C=C(C)/C(=N/O)[C@H]4OC/C(=C\C=C\[C@@H]2C)[C@]43O)O[C@@H](C)[C@@H]1O` [Selamectin] as the compound, how does the MIC (M. bovis) read?
Answer: 2 to 4 µg/mL

Question: And the MIC (M. smegmatis)?
Answer: 2 to 4 µg/mL

Question: What about the “change in susceptibility compared to wild-type M. smegmatis (MIC)” value [5] of the same compound?
Answer: no changes in their susceptibilities

Question: What about the MIC (M. tuberculosis) of the same compound?
Answer: 2 to 4 µg/mL

Question: What about the “IC50 compared to the wild type enzyme” value (M. smegmatis DprE1 C394A [6]) of the same compound?
Answer: in the same range

Question: And the “IC50 compared to the wild type enzyme” value (M. smegmatis DprE1 C394S [7])?
Answer: slightly higher

Question: What about the “day at which the limit of detection (1-log CFU/mL) was reached” value (M. tuberculosis NTB1) of the same compound?
Answer: 11 day

Question: What about the “time–kill activity against NTB1 compared to H37Rv” value (M. tuberculosis NTB1) of the same compound?
Answer: more active

Question: What about the MIC (M. avium) of the same compound?
Answer: 16 µg/mL (≈ 20.8 µM)

Question: And the IC50 (M. smegmatis DprE1 [4]; IC50)?
Answer: ~2.6 µM and 2.6 µM

Question: What about the MIC (M. abscessus) of the same compound?
Answer: > 32 µg/mL

Question: And the “^14C uptake” value (M. tuberculosis H37Rv [8])?
Answer: general decrease

Question: And the “changes in lipid composition associated with inhibition of arabinan synthesis” value (M. tuberculosis H37Rv [8])?
Answer: did not result in significant changes

Question: What about the MIC (M. tuberculosis H37Rv [2]; read-out: MIC SEL) of the same compound?
Answer: 4 µg/mL (≈ 5.19 µM)

Question: What about the “^14C uptake” value (M. smegmatis mc^2155 [9]) of the same compound?
Answer: general decrease

Question: What about the “changes in lipid composition associated with inhibition of arabinan synthesis” value (M. smegmatis mc^2155 [9]) of the same compound?
Answer: did not result in significant changes

Question: What about the MIC (M. smegmatis mc^2155 [3]; MC^2155, read-out: MIC SEL) of the same compound?
Answer: 4 µg/mL (≈ 5.19 µM)

Question: What about the IC50 (M. smegmatis DprE1 C394A [10]) of the same compound?
Answer: 3.9 ± 1 µM

Question: What about the “day at which the limit of detection (1-log CFU/mL) was reached” value (M. tuberculosis H37Rv [11]) of the same compound?
Answer: 22 day

Question: And the IC50 (M. smegmatis DprE1 L282V)?
Answer: 50.6 ± 9.2 µM

Question: And the “change in susceptibility compared to wild-type M. smegmatis (MIC)” value [12]?
Answer: no changes in their susceptibilities

Question: What about the IC50 (M. smegmatis DprE1 L282F) of the same compound?
Answer: 1000 ± 700 nM

Question: What about the IC50 (M. smegmatis DprE1 C394S [13]) of the same compound?
Answer: 12.1 ± 1.2 µM

Question: And the MIC (M. kansasii)?
Answer: 0.5 µg/mL (≈ 0.649 µM)

Question: For Ivermectin, which IC50 (M. smegmatis DprE1 [4]; read-out: IC50) is on record?
Answer: 13.2 ± 3.3 µM

Question: With Milbemycin oxime as the compound, how does the IC50 (M. smegmatis DprE1 [4]; read-out: IC50) read?
Answer: 25.5 ± 5.6 µM
